Biological target: PLK1 (Homo sapiens, UniProt P53350)
Experiment: PLK1 Inhibition Assay 1 (radioactive-phosphate incorporation assay)
Assay type: biochemical
Details: Ki(app), [γ-33P]ATP 350 μM, peptide 450 μM, 1 nM PLK1 for values of <1 nM
Experimental: Compounds of the present invention are evaluated as inhibitors of human PLK using the following assays.
Compounds were screened for their ability to inhibit PLK1 using a radioactive-phosphate incorporation assay. Assays were carried out in a mixture of 25 mM HEPES (pH 7.5), 10 mM MgCl2, 0.1% BSA, and 2 mM DTT. Final substrate concentrations were 150 μM (350 μM for determining values of <1 nM) [γ-33P]ATP (115 mCi 33P ATP/mmol ATP, Amersham Pharmacia Biotech/Sigma Chemicals) and 300 μM (450 μM for determining values of <1 nM) peptide (KKKISDELMDATFADQEAK)[SEQ ID:1]. Assays were carried out at 25° C. in the presence of 4 nM (1 nM for determining values of <1 nM) PLK1. An assay stock buffer solution was prepared containing all of the reagents listed above, with the exception of ATP and the test compound of interest. 30 μL of the stock solution was placed in a 96 well plate followed by addition of 2 μL of DMSO stock containing serial dilutions of the test compound (typically starting from a final concentration of 10 μM with 2-fold serial dilutions) in duplicate (final DMSO concentration 5%). The plate was pre-incubated for 10 minutes at 25° C. and the reaction initiated by addition of 8 μL [γ-33P]ATP (final concentration 150 μM (350 μM for determining values of <1 nM))).
The reaction was stopped after 90 minutes (240 minutes for determining values of <1 nM) by the addition of 100 μL 0.14M phosphoric acid. A multiscreen phosphocellulose filter 96-well plate (Millipore, Cat no. MAPHN0B50) was pretreated with 100 μL 0.2M phosphoric acid prior to the addition of 125 μL of the stopped assay mixture. The plate was washed with 4×200 μL 0.2M phosphoric acid. […]
After removing mean background values for all of the data points, Ki(app) data were calculated from non-linear regression analysis of the initial rate data using the Prism software package (GraphPad Prism version 3.0cx for Macintosh, GraphPad Software, San Diego Calif., USA).

Chain of PLK1 (P53350 whole entry): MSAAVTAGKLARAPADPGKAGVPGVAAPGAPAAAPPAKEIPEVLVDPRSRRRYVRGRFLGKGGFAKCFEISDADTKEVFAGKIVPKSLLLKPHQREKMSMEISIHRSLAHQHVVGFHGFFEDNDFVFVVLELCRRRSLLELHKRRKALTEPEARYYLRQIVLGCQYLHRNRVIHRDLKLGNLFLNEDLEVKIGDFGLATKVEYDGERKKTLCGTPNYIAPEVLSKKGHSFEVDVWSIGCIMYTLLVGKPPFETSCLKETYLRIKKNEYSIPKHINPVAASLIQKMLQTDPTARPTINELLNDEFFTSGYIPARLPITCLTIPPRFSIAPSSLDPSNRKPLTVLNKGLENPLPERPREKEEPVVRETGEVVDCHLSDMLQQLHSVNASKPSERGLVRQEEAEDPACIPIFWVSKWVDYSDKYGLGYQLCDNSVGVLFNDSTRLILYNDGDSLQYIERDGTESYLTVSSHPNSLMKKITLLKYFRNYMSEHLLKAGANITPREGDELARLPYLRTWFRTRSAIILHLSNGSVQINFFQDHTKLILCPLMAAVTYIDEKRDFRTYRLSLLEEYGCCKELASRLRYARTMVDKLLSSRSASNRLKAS

Question: Which Ki does the source give for `CC[C@@H]1c2c(C(=O)O)ncn2-c2cnc(Nc3ccc(C(=O)NC)cc3OC)nc2N1C1CCCC1` [Compound I-2, (R)-3-(4-(methylcarbamoyl)-2-methoxyphenylamino)-5-cyclopentyl-6-ethyl-5,6-dihydroimidazo[1,5-f]pteridine-7-carboxylic acid] here?
Answer: < 1 nM

Question: Which Ki does the source give for `CC[C@@H]1c2cncn2-c2cnc(Nc3ccc(C(=O)NC4CC4)cc3OC)nc2N1C1CCCC1` [Compound I-6, (R)-4-(5-cyclopentyl-6-ethyl-5,6-dihydroimidazo[1,5-f]pteridin-3-ylamino)-N-cyclopropyl-3-methoxybenzamide] here?
Answer: < 1 nM

Question: `CC[C@@H]1c2cncn2-c2cnc(Nc3ccc(C(=O)NC)cc3OC)nc2N1C1CCCC1` [Compound I-4, (R)-4-(5-cyclopentyl-6-ethyl-5,6-dihydroimidazo[1,5-f]pteridin-3-ylamino)-3-methoxy-N-methylbenzamide] was tested. Which Ki did it give?
Answer: < 1 nM
